This passage reports IC50 results from ChEMBL document CHEMBL3739374, “Synthesis and evaluation of anticancer activity of novel andrographolide derivatives” (Medchemcomm, 2015).

In brackets after ≈: the same amount, converted by molar mass.

One experiment deals with A549. Description: Cytotoxicity against human A549 cells by MTT assay. The format is functional, cell-based.
For the compound `CC(=O)O[C@@H]1COC(=O)/C1=C/C[C@@H]1[C@@]2(CC[C@@H]3[C@]4(C)CO[C@@H](C)O[C@@H]4CC[C@]31C)CO2`, half-maximal inhibition (IC50) was put at 4.37 µg/mL (≈ 10.1 µM).
The same measure, in the same setting: then `C[C@@H]1OC[C@@]2(C)[C@H]3CC[C@@]4(CO4)[C@@H](C/C=C4/C(=O)OC[C@H]4O)[C@]3(C)CC[C@H]2O1`, with 4.34 µg/mL (≈ 11.1 µM); and `C=C1CC[C@@H]2[C@]3(C)CO[C@@H](C)O[C@@H]3CC[C@@]2(C)[C@@H]1/C=C/C1=CCOC1=O`, with 88.7 µg/mL (≈ 247 µM).
Same read-out and setting: then `C=C1CC[C@@H]2[C@]3(C)CO[C@@H](CCC)O[C@@H]3CC[C@@]2(C)[C@@H]1C/C=C1/C(=O)OC[C@H]1O`, with 23 µg/mL (≈ 56.8 µM); and `C=C1CC[C@@H]2[C@]3(C)CO[C@@H](c4ccccc4)O[C@@H]3CC[C@@]2(C)[C@@H]1C/C=C1/C(=O)OC[C@H]1O`, with 4.07 µg/mL (≈ 9.28 µM); and `C=C1CC[C@@H]2[C@]3(C)CO[C@@H](C)O[C@@H]3CC[C@@]2(C)[C@@H]1C/C=C1\C=COC1=O`, with 46.9 µg/mL (≈ 131 µM).
On the same count and under the same terms, with `C[C@@H]1OC[C@@]2(C)[C@H]3CC[C@@]4(CO4)[C@@H](/C=C/C4=CCOC4=O)[C@]3(C)CC[C@H]2O1` the figure was 18.2 µg/mL (≈ 48.6 µM).

The next experiment deals with B16. Description: Cytotoxicity against mouse B16 cells by MTT assay. The format is functional, cell-based.
In turn, `CC(=O)O[C@@H]1COC(=O)/C1=C/C[C@@H]1[C@@]2(CC[C@@H]3[C@]4(C)CO[C@@H](C)O[C@@H]4CC[C@]31C)CO2` came in with an IC50 of 6.98 µg/mL (≈ 16.1 µM).
On the same count and under the same terms, with `C[C@@H]1OC[C@@]2(C)[C@H]3CC[C@@]4(CO4)[C@@H](C/C=C4/C(=O)OC[C@H]4O)[C@]3(C)CC[C@H]2O1` the figure was 6.34 µg/mL (≈ 16.2 µM); with `C=C1CC[C@@H]2[C@]3(C)CO[C@@H](C)O[C@@H]3CC[C@@]2(C)[C@@H]1/C=C/C1=CCOC1=O`, 62 µg/mL (≈ 173 µM); with `C=C1CC[C@@H]2[C@]3(C)CO[C@@H](CCC)O[C@@H]3CC[C@@]2(C)[C@@H]1C/C=C1/C(=O)OC[C@H]1O`, 44.4 µg/mL (≈ 110 µM).
As for `C=C1CC[C@@H]2[C@]3(C)CO[C@@H](c4ccccc4)O[C@@H]3CC[C@@]2(C)[C@@H]1C/C=C1/C(=O)OC[C@H]1O`, inhibition was half-maximal at 9.54 µg/mL (≈ 21.8 µM) (IC50).
The same measure, in the same setting: then `C=C1CC[C@@H]2[C@]3(C)CO[C@@H](C)O[C@@H]3CC[C@@]2(C)[C@@H]1C/C=C1\C=COC1=O`, with 43 µg/mL (≈ 120 µM); and `C[C@@H]1OC[C@@]2(C)[C@H]3CC[C@@]4(CO4)[C@@H](/C=C/C4=CCOC4=O)[C@]3(C)CC[C@H]2O1`, with 44.1 µg/mL (≈ 118 µM).

The subject of another experiment is HeLa. Description: Cytotoxicity against human HeLa cells by MTT assay. The class given is functional, cell-based.
Compound `CC(=O)O[C@@H]1COC(=O)/C1=C/C[C@@H]1[C@@]2(CC[C@@H]3[C@]4(C)CO[C@@H](C)O[C@@H]4CC[C@]31C)CO2` returned an IC50 of 7.12 µg/mL (≈ 16.4 µM).
Same read-out and setting: then `C[C@@H]1OC[C@@]2(C)[C@H]3CC[C@@]4(CO4)[C@@H](C/C=C4/C(=O)OC[C@H]4O)[C@]3(C)CC[C@H]2O1`, with 6.97 µg/mL (≈ 17.8 µM); and `C=C1CC[C@@H]2[C@]3(C)CO[C@@H](C)O[C@@H]3CC[C@@]2(C)[C@@H]1/C=C/C1=CCOC1=O`, with 56.2 µg/mL (≈ 157 µM); and `C=C1CC[C@@H]2[C@]3(C)CO[C@@H](CCC)O[C@@H]3CC[C@@]2(C)[C@@H]1C/C=C1/C(=O)OC[C@H]1O`, with 27 µg/mL (≈ 66.8 µM).
Regarding `C=C1CC[C@@H]2[C@]3(C)CO[C@@H](c4ccccc4)O[C@@H]3CC[C@@]2(C)[C@@H]1C/C=C1/C(=O)OC[C@H]1O`, the IC50 turned out to be 3.8 µg/mL (≈ 8.66 µM). Against the preceding compound, the IC50 is about 7.1-fold lower.
Still for that read-out and setting: then `C=C1CC[C@@H]2[C@]3(C)CO[C@@H](C)O[C@@H]3CC[C@@]2(C)[C@@H]1C/C=C1\C=COC1=O`, with 48.6 µg/mL (≈ 135 µM); and `C[C@@H]1OC[C@@]2(C)[C@H]3CC[C@@]4(CO4)[C@@H](/C=C/C4=CCOC4=O)[C@]3(C)CC[C@H]2O1`, with 7.78 µg/mL (≈ 20.8 µM).

The subject of a further experiment is ACHN. Description: Cytotoxicity against human ACHN cells by MTT assay. The format is functional, cell-based.
Consider `CC(=O)O[C@@H]1COC(=O)/C1=C/C[C@@H]1[C@@]2(CC[C@@H]3[C@]4(C)CO[C@@H](C)O[C@@H]4CC[C@]31C)CO2`, for which the IC50 is 5.58 µg/mL (≈ 12.8 µM).
The same measure, in the same setting: then `C[C@@H]1OC[C@@]2(C)[C@H]3CC[C@@]4(CO4)[C@@H](C/C=C4/C(=O)OC[C@H]4O)[C@]3(C)CC[C@H]2O1`, with 4.49 µg/mL (≈ 11.4 µM).
The same measure, in the same setting: with `C=C1CC[C@@H]2[C@]3(C)CO[C@@H](C)O[C@@H]3CC[C@@]2(C)[C@@H]1/C=C/C1=CCOC1=O` the figure was 125 µg/mL (≈ 349 µM).
Still for that read-out and setting: with `C=C1CC[C@@H]2[C@]3(C)CO[C@@H](CCC)O[C@@H]3CC[C@@]2(C)[C@@H]1C/C=C1/C(=O)OC[C@H]1O` the figure was 32.9 µg/mL (≈ 81.4 µM); with `C=C1CC[C@@H]2[C@]3(C)CO[C@@H](c4ccccc4)O[C@@H]3CC[C@@]2(C)[C@@H]1C/C=C1/C(=O)OC[C@H]1O`, 4.78 µg/mL (≈ 10.9 µM).
As to `C=C1CC[C@@H]2[C@]3(C)CO[C@@H](C)O[C@@H]3CC[C@@]2(C)[C@@H]1C/C=C1\C=COC1=O`, half-maximal inhibition (IC50) required 60.6 µg/mL (≈ 169 µM).
`C[C@@H]1OC[C@@]2(C)[C@H]3CC[C@@]4(CO4)[C@@H](/C=C/C4=CCOC4=O)[C@]3(C)CC[C@H]2O1`: the IC50 was found to be 57.3 µg/mL (≈ 153 µM).

Tested on in another experiment: not listed separately
Description: Cytotoxicity against rat IEC-6 cells by MTT assay. The format is cell-based.
In turn, `CC(=O)O[C@@H]1COC(=O)/C1=C/C[C@@H]1[C@@]2(CC[C@@H]3[C@]4(C)CO[C@@H](C)O[C@@H]4CC[C@]31C)CO2` returned an IC50 of 14.5 µg/mL (≈ 33.4 µM).
The same measure, in the same setting: then `C[C@@H]1OC[C@@]2(C)[C@H]3CC[C@@]4(CO4)[C@@H](C/C=C4/C(=O)OC[C@H]4O)[C@]3(C)CC[C@H]2O1`, with 8.76 µg/mL (≈ 22.3 µM).
On the same count and under the same terms, with `C=C1CC[C@@H]2[C@]3(C)CO[C@@H](C)O[C@@H]3CC[C@@]2(C)[C@@H]1/C=C/C1=CCOC1=O` the figure was 94.3 µg/mL (≈ 263 µM).
Still for that read-out and setting: then `C=C1CC[C@@H]2[C@]3(C)CO[C@@H](CCC)O[C@@H]3CC[C@@]2(C)[C@@H]1C/C=C1/C(=O)OC[C@H]1O`, with 14.1 µg/mL (≈ 35 µM).
With `C=C1CC[C@@H]2[C@]3(C)CO[C@@H](c4ccccc4)O[C@@H]3CC[C@@]2(C)[C@@H]1C/C=C1/C(=O)OC[C@H]1O`, the half-maximal inhibitory concentration (IC50) was found to be 19.2 µg/mL (≈ 43.8 µM).
Consider `C=C1CC[C@@H]2[C@]3(C)CO[C@@H](C)O[C@@H]3CC[C@@]2(C)[C@@H]1C/C=C1\C=COC1=O`, for which the IC50 was 40 µg/mL (≈ 112 µM).
Same read-out and setting: with `C[C@@H]1OC[C@@]2(C)[C@H]3CC[C@@]4(CO4)[C@@H](/C=C/C4=CCOC4=O)[C@]3(C)CC[C@H]2O1` the figure was 35.1 µg/mL (≈ 93.6 µM).
